Results from patent US5324722A, “2-, 3-, 5-, 8-, 10- and/or 11-substituted dibenzoxazepine compounds, pharmaceutical compositions and methods for treating pain” (G. D. Searle & Co., priority 1993, dated 1994).

What was measured:
[1] = target: T1, prostaglandin E2-induced contractions of segments of guinea pig ileum (Cavia porcellus, UniProt A0A286XHJ6); test: Prostaglandin (PGE) Antagonism Assay in guinea pig ileum; type: cell-based; settings: pA2 against prostaglandin E2-induced contractions; initial concentration 3 micromolar; estimated or by Schild plot
T1 construct: Segments of ileum about 2 cm long were then cut and mounted in a 10 mL tissue bath; from tissue; host or cells: guinea pig ileum segments
T1 sequence (A0A286XHJ6 1-405): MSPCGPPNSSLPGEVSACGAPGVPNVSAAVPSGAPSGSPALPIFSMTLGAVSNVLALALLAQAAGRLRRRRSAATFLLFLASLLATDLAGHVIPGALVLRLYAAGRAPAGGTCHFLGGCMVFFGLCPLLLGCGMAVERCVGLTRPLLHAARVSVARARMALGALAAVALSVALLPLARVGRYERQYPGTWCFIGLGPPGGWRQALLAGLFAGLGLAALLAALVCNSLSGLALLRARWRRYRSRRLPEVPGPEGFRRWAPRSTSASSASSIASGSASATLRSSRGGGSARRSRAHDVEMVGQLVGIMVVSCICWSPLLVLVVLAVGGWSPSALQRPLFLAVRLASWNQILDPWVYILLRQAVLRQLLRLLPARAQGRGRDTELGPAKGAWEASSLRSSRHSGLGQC
Method: In order to determine the effectiveness of several of the compounds of the present invention ("test compounds") as prostaglandin E2 antagonists,a prostaglandin antagonism assay was conducted, as described below, to determine the ability of these compounds to inhibit prostaglandin E2 -induced contractions of segments of guinea pig ileum.
Male albino guinea pigs weighing 200 to 500 grams were sacrificed by cervical dislocation. The ilea were then quickly removed from the guinea pigs and placed in a modified Tyrode solution, a solution which is known to those skilled in the art, containing one-half of the usual amount of magnesium ions.
Segments of ileum about 2 cm long were then cut and mounted in a 10 mL tissue bath containing the modified Tyrode solution. The solution was maintained at 37° C. and aerated with a gaseous mixture of 95% oxygen and 5% carbon dioxide. Data for a control prostaglandin E2 dose response curve plotting concentration of prostaglandin E2 versus the intensity of contractions, detected isotonically, was then obtained by experimentally adjusting the dose of the prostaglandin E2 being injected into the tissue bath, in a manner known by those of skill in the art.
Solutions or suspensions containing an initial concentration (3 micromolar) of a test compound in modified Tyrode solution ("test solutions/suspensions") were then separately substituted for the control bath solution. Each test solution/suspension was then kept in constant contact with the ileum tissue, except for brief periods to drain the bath in preparation for rinsing with fresh test solution/suspension. A second prostaglandin E2 dose response curve was then generated for prostaglandin E2 in the presence of a test compound.
A dose ratio of EC50 doses was then calculated from the results of each test in a manner known by those of skill in the art. A test compound was determined to be "active" if the initial concentration used yielded at least a two-fold shift (dose ratio greater than or equal to 2) in the dose response curve for 10 prostaglandin E2.

mice = test: Writhing Assay (PBQ-induced writhing); type: in vivo; settings: for WRITHING ASSAY Number Out of Ten I.G. / WRITHING ASSAY Number Out of Ten S.C.: number of mice out of ten with analgesia, 30 minutes before PBQ i.p., male albino mice; for WRITHING ASSAY Number Out of Ten I.G.: 30 mg per kilogram intragastric; for WRITHING ASSAY Number Out of Ten S.C.: 30 mg per kilogram subcutaneous
Text: The Writhing Assay is one of the most widely-used experimental procedures for measuring the analgesic activity of different narcotic and nonnarcotic analgesic agents, and involves the continuous, chemically-induced pain of visceral origin to an animal, such as a mouse orrat. [Gyires et al., Arch. int. Pharmacodyn, 267, 131-140 (1984); C. Vander Wende et al., Fed. Proc., 15, 494 (1956); Koster et al., Fed. Proc., 18, 412 (1959); and Witken et al., J. Pharmacol. exp. Ther., 133, 400-408 (1961).] Chemicals which may be used to induce this pain include phenylbenzoquinone (PBQ) and acetic acid. As a result of the chemical irritation to the animal, a characteristic stretching and writhing of the animal (dorsiflexion of the animal's back, extension of its hindlimbs and the strong contraction of its abdominal musculature) will generally occur. […] Drugs which reduce the number of writhes of the animal appear to restore the normal nociceptive threshold of the animal.
Charles River male albino mice, weighing 20 to 30 grams were used in this assay.
Thirty minutes after subcutaneous or intragastric administration to ten mice of 30 mg per kilogram of body weight of a compound of the present invention ("test compound"), […] per 10 g of body weight of a 0.025% w/v solution of PBQ was injected intraperitoneally into each mouse. Ten mice which were given saline in place of a test compound of the invention were used as a control group.
Five minutes later, each mouse was individually placed into a glass beaker for observation, and the number of writhes occurring during the following ten-minute period was counted.
A test compound was considered to have produced analgesia in a mouse if, in accordance with the conditions set forth above, and under the test criteria employed for this assay, after the administration of 30 mg per kilogram of body weight of a compound of the present invention to the mouse, the number of writhes elicited by a mouse injected with PBQ was equal to, or less than, one-half the median number of writhes recorded for the saline-treated control group of mice that day, as described by Taber in "Predictive Value of Analgesic Assays in Mice and Rats," Advances in BiochemicaI Psychopharmacology, 8, 191 (1974).
The results for the particular compounds of the present invention analyzed in this assay, and discussed in the examples identified below which correspond thereto, are presented in Table 1 hereinbelow under the heading "WRITHING ASSAY." The numbers in fractions indicate the number of mice out of ten in which a test compound produced analgesia. […] (b) Prostaglandin (PGE) Antagonism Assay

Row | Compound | PGE ANTAGONISM IN GUINEA PIG ILEUM (pA2 value) [1] | WRITHING ASSAY Number Out of Ten I.G. (mice) | WRITHING ASSAY Number Out of Ten S.C. (mice) | Kb [1] [nM] | relative analgesic potency in the Writhing Assay (mice; among the compounds of the invention tested, 30 mg per kilogram, mice)
1 | CCCC1c2ccccc2Oc2ccc(Cl)cc2N1C(=O)NNC(=O)CCS(=O)(=O)CC (stereo not drawn) [Example 21, 8-chloro-11-propyldibenz[b,f][1,4]oxazepine-10(11H)-carboxylic acid. 2-[3-(ethylsulfonyl)-1-oxopropyl]hydrazide] | 5.94 | 3/10 | 1/10 | – | –
2 | CCC1c2ccccc2Oc2ccc(Cl)cc2N1C(=O)NNC(=O)CCS(=O)(=O)CC (stereo not drawn) [Example 17, 8-chloro-11-ethyldibenz[b,f][1,4]oxazepine-10(11H)-carboxylic acid, 2-[3-(ethylsulfonyl)-1-oxopropyl]hydrazide] | – | 1/10 | 2/10 | 1290 | –
3 | CCS(=O)(=O)CCC(=O)NNC(=O)N1c2cc(Cl)ccc2Oc2ccccc2C1C (stereo not drawn) [Example 13, 8-chloro-11-methyldibenz[b,f][1,4]oxazepine-10(11H)-carboxylic acid, 2-[3-(ethylsulfonyl)-1-oxopropyl]hydrazide] | 6.03 | 5/10 | 5/10 | – | –
4 | CCS(=O)(=O)CCC(=O)NNC(=O)C1c2ccccc2Oc2ccc(Cl)cc2N1C(=O)OC(C)(C)C (stereo not drawn) [Example 7, 8-chlorodibenz[b,f][1,4]oxazepine-10,11(11H)-dicarboxylic acid, 10-(1,1-dimethylethyl) ester, 11-[2-[3-(ethylsulfonyl)-1-oxopropyl]hydrazide]] | – | 5/10 | 3/10 | – | most potent
